Data published in patent US12565520B2, “Chemically-stabilized allosteric modulators of leucine-rich repeat kinase 2 (LRRK2)” (UNIVERSITY OF GEORGIA RESEARCH FOUNDATION, INC., priority 2020, dated 2026).
“Also recorded” adds a separate entry of the source.

Experiments:
GFP-tagged LRRK2 [1] = target: T1, GFP-tagged LRRK2 (Homo sapiens, UniProt Q5S007); assay: Pulldown of LRRK2 from cell lysate with biotin-labeled peptides; format: binding; settings: 10 μM biotin-labeled peptide, lysate of HEK293 cells overexpressing GFP-tagged LRRK2
T1 construct: co-transfecting HEK293 cells with GFP-tagged and strep-tagged full-length LRRK2; expressed in transfected cells; host or cells: HEK293
T1 sequence (Q5S007 whole entry): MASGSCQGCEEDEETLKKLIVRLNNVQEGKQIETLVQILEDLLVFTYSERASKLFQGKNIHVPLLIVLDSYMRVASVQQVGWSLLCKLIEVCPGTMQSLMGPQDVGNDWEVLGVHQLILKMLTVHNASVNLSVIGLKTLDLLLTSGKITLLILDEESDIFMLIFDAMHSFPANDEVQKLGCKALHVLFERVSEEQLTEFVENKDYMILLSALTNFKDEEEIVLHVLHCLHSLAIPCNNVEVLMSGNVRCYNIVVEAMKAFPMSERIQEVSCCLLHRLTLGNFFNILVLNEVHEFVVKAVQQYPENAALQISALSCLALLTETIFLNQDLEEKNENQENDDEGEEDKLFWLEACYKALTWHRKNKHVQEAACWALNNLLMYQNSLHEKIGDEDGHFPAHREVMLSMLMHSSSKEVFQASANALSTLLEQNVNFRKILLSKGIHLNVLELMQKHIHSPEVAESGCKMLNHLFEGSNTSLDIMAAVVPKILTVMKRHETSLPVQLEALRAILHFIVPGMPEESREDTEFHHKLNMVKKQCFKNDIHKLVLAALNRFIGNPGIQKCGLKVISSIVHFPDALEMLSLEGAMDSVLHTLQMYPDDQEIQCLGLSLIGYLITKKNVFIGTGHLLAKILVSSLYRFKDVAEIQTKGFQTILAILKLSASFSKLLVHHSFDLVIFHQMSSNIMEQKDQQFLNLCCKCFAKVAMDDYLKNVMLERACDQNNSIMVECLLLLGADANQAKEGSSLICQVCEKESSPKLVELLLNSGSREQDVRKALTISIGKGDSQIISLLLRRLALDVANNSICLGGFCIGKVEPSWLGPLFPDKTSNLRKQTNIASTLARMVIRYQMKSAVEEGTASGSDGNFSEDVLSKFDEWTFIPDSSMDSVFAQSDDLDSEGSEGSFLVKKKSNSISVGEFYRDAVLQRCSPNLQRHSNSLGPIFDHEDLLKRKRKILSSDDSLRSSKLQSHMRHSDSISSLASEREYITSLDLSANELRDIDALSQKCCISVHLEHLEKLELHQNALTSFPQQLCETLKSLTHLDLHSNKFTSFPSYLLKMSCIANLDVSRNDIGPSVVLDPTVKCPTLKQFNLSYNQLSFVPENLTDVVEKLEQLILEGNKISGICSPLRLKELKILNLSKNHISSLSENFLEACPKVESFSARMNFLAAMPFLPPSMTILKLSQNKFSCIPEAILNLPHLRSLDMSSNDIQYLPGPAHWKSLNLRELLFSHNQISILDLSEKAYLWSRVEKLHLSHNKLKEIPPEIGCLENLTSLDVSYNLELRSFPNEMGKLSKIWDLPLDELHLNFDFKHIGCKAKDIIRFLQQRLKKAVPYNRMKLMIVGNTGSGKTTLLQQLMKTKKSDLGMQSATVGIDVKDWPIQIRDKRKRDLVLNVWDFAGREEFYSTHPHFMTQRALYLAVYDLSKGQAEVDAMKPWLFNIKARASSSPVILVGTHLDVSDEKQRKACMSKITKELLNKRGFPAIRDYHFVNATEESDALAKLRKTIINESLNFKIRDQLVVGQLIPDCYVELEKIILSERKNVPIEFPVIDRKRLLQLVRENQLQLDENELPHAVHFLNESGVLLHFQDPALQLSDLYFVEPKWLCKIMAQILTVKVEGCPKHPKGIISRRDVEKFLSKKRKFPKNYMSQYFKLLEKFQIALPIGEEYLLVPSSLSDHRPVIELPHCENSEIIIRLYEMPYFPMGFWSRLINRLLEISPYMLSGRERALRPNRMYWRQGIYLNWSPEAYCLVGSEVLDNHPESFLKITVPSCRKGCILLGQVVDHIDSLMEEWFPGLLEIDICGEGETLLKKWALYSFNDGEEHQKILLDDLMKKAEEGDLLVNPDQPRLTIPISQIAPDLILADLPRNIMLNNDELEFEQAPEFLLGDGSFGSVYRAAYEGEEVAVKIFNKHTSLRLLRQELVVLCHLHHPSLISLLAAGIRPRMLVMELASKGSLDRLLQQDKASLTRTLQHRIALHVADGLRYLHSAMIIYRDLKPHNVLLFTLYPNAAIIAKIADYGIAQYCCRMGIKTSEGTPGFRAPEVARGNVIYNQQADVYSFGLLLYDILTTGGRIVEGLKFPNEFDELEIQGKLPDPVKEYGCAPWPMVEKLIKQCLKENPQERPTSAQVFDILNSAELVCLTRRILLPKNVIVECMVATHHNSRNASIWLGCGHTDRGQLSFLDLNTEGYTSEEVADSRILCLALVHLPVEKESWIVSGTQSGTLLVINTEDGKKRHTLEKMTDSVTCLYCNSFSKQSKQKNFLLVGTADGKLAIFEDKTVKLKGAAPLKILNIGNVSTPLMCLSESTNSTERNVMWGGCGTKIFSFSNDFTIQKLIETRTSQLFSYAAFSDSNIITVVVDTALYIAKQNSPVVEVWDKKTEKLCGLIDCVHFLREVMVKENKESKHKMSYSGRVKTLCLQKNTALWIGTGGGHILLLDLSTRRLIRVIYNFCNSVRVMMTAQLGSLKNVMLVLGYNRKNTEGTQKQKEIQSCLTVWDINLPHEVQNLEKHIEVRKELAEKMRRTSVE
Procedure: Pulldown experiments. Fresh lysate of HEK293 cells overexpressing GFP-tagged LRRK2 was mixed and incubated with biotin-labeled peptide (added to a final concentration of 10 μM) and incubated at 4° C. overnight. The mixture was then applied to Magnetic Strep-beads (MagStrep ‘Type3’ XT Beads (IBA, Gottingen, Germany)) and the immune complex was washed twice (10 mM Tris/HCl pH 7.5, 150 mM NaCl) and subjected to immunoblot analysis. Samples were separated on 6% Tris-Glycine gels, transferred onto a nitrocellulose membrane (GE Lifesciences), and processed for western analysis. Membranes were blocked in 5% dry milk in Tris-buffered saline plus Tween-20 for 1 hour and probed with rat monoclonal anti-LRRK2 (clone 24D8 1:1000, Gloeckner lab(69)) and incubated overnight at 4° C. with gentle shaking. Membranes were then washed three times for 10 min at room temperature in PBS containing 0.1% or 0.05% Tween-20 and then incubated for 1 hour with anti-rat IgG-HRP (sc-2750, Santa Cruz Biotechnology). Membranes were again washed three times for 10 min at room temperature in PBS containing 0.1% or 0.05 Tween-20. The membranes were coated with enhanced chemiluminescent (ECL) reagent (WesternSure PREMIUM, Li-COR biosciences), and proteins were detected using the C-Digit Imaging System (Li-COR Biosciences). […]

[2] = system: LRRK2 (R1441G) kinase activity as Rab10 phosphorylation; assay: Rab10 pT73 phosphorylation immunoblot, HEK293T with LRRK2 R1441G and Rab29; format: cell-based; settings: LRRK2 R1441G + Rab29, 10 μM peptide, 12 h / 15 hours
Procedure: Rab10 Immunoblotting. HEK293T cells were co-transfected at a confluency of 50-60% with Strep-FLAG tagged LRRK2 R1441G and Rab29 as well as Rab10 (both HA-FLAG tagged) using polyethylenimine (PEI, Polyscience) as previously described(46). […] […], cells were lysed in twice, first in lysis buffer (30 mM Tris-HCL (pH7.4), 150 mM NaCl, 0.5% NP-40, complete protease Inhibitor cocktail and phosphatase inhibitor cocktail II & III (Sigma Aldrich) and again after centrifugation in 1% SDS. Cleared lysates were adjusted to 2 μg/μl with 5× Laemmli Buffer and lysis buffer. Samples were used for denaturating electrophoresis using 10% Bis-Tris gels (NuPAGE) and for western blotting onto PVDF membranes. Membranes were blocked with 5% non-fat dry milk dissolved in TBS-T (30 mM Tris-HCL (pH 7.4), 0.1% Tween 20) and separated horizontally at 140 kDa. Primary antibodies were added TBS-T with 5% BSA (pT73 Rab10) 1:2,000 (ab230261) and pS1292 LRRK2 1:2,000 (ab203181)) or total protein antibodies (Rab10(ERP13424) 1:5,000 (ab181367) or LRRK2 (clone 24D8) 1:5,000 (Gloeckner lab)), respectively. Membranes were incubated with HRP-conjugated secondary antibodies diluted in TBS-T with 5% milk prior to imaging using ECL Plus (Pierce) with exposure to photometric films (Hyperfilms, GE Healthcare). […]

GFP-tagged LRRK2 [3] = target: T1, GFP-tagged LRRK2; assay: Localization of GFP-tagged LRRK2 by confocal microscopy; format: cell-based; settings: HEK293 cells, 10 μM peptide, 12 h
From the text: Next, we analyzed the effects of these inhibitor peptides on LRRK2 localization.

RAW 264.7 cells = assay: ROS production assay (CellROX, zymosan); format: cell-based; settings: 10 μM peptide 9 hours, then Zymosan 50 μg/mL 30 mins
Procedure: ROS production assay. Flow cytometry was used to measure reactive oxygen species (ROS) through fluorescence emission of the CellROX deep red dye (Life Technologies). RAW264.7 cells (ATCC® SC-6003™) were plated at 120,000/well in a 96-well low-adherence tissue culture plate (Costar).

[4] = system: primary cortical neurons overexpressing G2019S-LRRK2; assay: Neuronal apoptosis in primary cortical neurons expressing G2019S-LRRK2; format: cell-based, mouse; settings: 10 μM peptide, 48 h
From the text: Preparation of primary mouse neuronal cultures, and assessment of neuronal death. Embryonic day 16 (E16) pregnant C57BL mice were used in this study, with primary cortical neurons prepared as described (N. Antoniou et al., A motif within the armadillo repeat of Parkinson's-linked LRRK2 interacts with FADD to hijack the extrinsic death pathway. Sci Rep 8, 3455 (2018)). Briefly, under aseptic conditions, cortices were removed and cut into small pieces before enzymatic digestion (trypsin 0.05% and 100 μg/ml DNAse) and mechanical dissociation. Cells were centrifuged and counted and plated at a density of 150,000/cm^2 in BrainPhys neuronal culture medium (StemCell Technologies) supplemented with SM1 Neuronal Supplement (StemCell Technologies), L-glutamine (0.5 mM) and penicillin/[…]. After 3-4 DIV, neurons were transfected using Lipofectamine 2000 (Thermo Scientific) as per the manufacturer's instructions. Neurons were transfected with Flag-tagged WT or mutant (G2019S) human LRRK2 (as described previously). The following day, the treatment of neurons with fluorescently labeled peptides (at 10 μM final concentration) was initiated. The peptides were replenished in the neuronal medium after 24 hours, and the indicated concentrations. […] For quantification of apoptotic neuronal profiles, the approach described previously was used.

| Substance | LRRK2 pulled down by biotin-labeled peptide (immunoblot) (GFP-tagged LRRK2 [1]) | Rab10 phosphorylation (pT73) [2] | LRRK2 localization after peptide treatment (GFP-tagged LRRK2 [3]) | zymosan induced ROS production (RAW 264.7 cells) | neurons undergoing apoptosis [4] |
| --- | --- | --- | --- | --- | --- |
| COR-domain stapled peptide formed from SEQ ID NO. 16 KGEGEXLLKXWK, X = (S)-2-(4′-pentenyl)alanine; PEG3 linker, FAM or biotin label (hydrocarbon staple; PEG3 linker; FAM or biotin; COR domain peptide; (6)..(6) Xaa is (S)-2-(4′-pentenyl)alanine; (10)..(10) Xaa is (S)-2-(4′-pentenyl)alanine) [LCIP1] | successfully bound to LRRK2; also recorded: both peptides bound LRRK2 | reduced Rab10 phosphorylation | LRRK2 maintained its cytoplasmic distribution; also recorded: did not induce mislocalization of LRRK2 | no statistically significant consequence | sharp decline in neurons undergoing apoptosis |
| Roc-domain stapled peptide formed from SEQ ID NO. 6 DEKQRKAC(Nle)SKITKEXLNKX, X = (S)-2-(4′-pentenyl)alanine; PEG3 linker, FAM or biotin label (DEKQRKACXSKITKEXLNKX; hydrocarbon staple; Nle; PEG3 linker; FAM or biotin; ROC domain petide; (9)..(9) Xaa is norleucine; (16)..(16) Xaa is (S)-2-(4′-pentenyl)alanine; (20)..(20) Xaa is (S)-2-(4′-pentenyl)alanine) [LRIP4] | successfully bound to LRRK2; also recorded: pulled down considerably more LRRK2 as compared to LCIP1; also recorded: both peptides bound LRRK2 | reduced Rab10 phosphorylation with LRIP4 inducing a more pronounced effect; also recorded: reduced after treatment with LRIP4 or LCIP1, with LRIP4 having a larger inhibitory effect | LRRK2 maintained its cytoplasmic distribution; also recorded: did not induce mislocalization of LRRK2 | significant reduction of zymosan induced ROS production to an extent comparable to MLi-2 | sharp decline in neurons undergoing apoptosis, especially for LRIP4 treated cells |
